Test: Solubility of additives in diesel at 4°C (visual phase separation)
Assay type: physicochemical
Settings: for limit of addition to diesel by solubility: conclusion from Example 2
Experimental: Tests for solubility in diesel at 4°C were performed with the effluent of the etherification of solketal with isobutylene. Table 1: Composition of the additive STBE
Three additives were prepared each with a different STBE/SLK ratio (1/3, 1/1 and 3/1 w/w) from […] this effluent. In turn, these additives were added to the same diesel fuel in increasing proportions (2, 10, 20, 30 and 50 % wt.).
Table 5: Results for STBE solubility in diesel at 4°C

Row | solubility in diesel at 4°C (0.5 % wt. additive in diesel) | state of additive in diesel (Fig 1) (2% in diesel, photograph) | solubility in diesel at 4°C (60 % wt. additive in diesel) | solubility in diesel at 4°C (75 % wt. additive in diesel) | solubility in diesel at 4°C (80 % wt. additive in diesel) | SMILES | limit of addition to diesel by solubility
1 | S | phase separation |  |  |  | CC1(C)OCC(CO)O1 (stereo not shown) [SLK, 2,2-dimethyl-4-hydroxymethyl-1,3-dioxolane, reference compound] | ≤ 0.5 % by weight
2 |  |  | S | S | S | CCC(C)(C)OCC1COC(C)(C)O1 (stereo not shown) [STAE-97, solketal-ter-amyl-ether] | not limited by its solubility with diesel
